Results on nine compounds are retold here after paper PMC6471532, “Drug Transport across Porcine Intestine Using an Ussing Chamber System: Regional Differences and the Effect of P-Glycoprotein and CYP3A4 Activity on Drug Absorption” (Pharmaceutics, 2019).

The test system of one data set is human jejunum. As to conditions: cited from earlier work; for Peff,human^a In Vivo: Loc-I-Gut, jejunal segment, cylindrical surface area; for Peff,human^b In Vivo: Loc-I-Gut with physiological estimates of the surface area for absorption.
A short description of data set [1]: Solubility in KBR, FaSSIF V2 and FeSSIF V2.
Data set [2] deals with viable porcine intestine (jejunum). The data set is described as follows: Passive absorption across viable porcine intestine (jejunum) ex vivo, Ussing chamber, from KBR and biorelevant media. As to conditions: for QDEP FeSSIF V2 / QDEP KBR / QDEP FaSSIF V2: amount deposited in intestine at 2 h as % of donor; for QPERM FeSSIF V2 / QPERM KBR / QPERM FaSSIF V2: amount permeated at 2 h as % of donor.

Experiment in data set [3]: as above
As to conditions: female, Swiss noble, pig.

Data set [4] has as its target T1, P-gp (Sus scrofa, UniProt K7GMM7). Nature of the data set: in vitro. The following applies: female, Swiss noble, pig, pH 7.4, with verapamil hydrochloride 100 µM in the donor compartment.
Data set [5] addresses T1, P-gp.
Data set [6] deals with CYP3A4. As to conditions: jejunum.
The conditions of data set [7]: source not given; cited from earlier work.
For data set [8], the system named is CYP3A4. Nature of the data set: in vitro. As to conditions: female, Swiss noble, pig, jejunum, 100 µM in KBR.
Another data set has as its system human intestine. As to conditions: Ussing chamber; cited from earlier work.
In data set [9] the test system is porcine duodenum, jejunum, ileum and colon. The data set is described as follows: Segmental drug permeation across porcine duodenum, jejunum, ileum and colon, Ussing chamber. The class given is in vitro ADME, pig. The following applies: KBR, 2 h.
Experiment in data set [10]: as above
Format: in vitro ADME, pig. As to conditions: female, Swiss noble, pig, 100 µM in KBR.

Where [11] appears, read: KBR buffer, pH 7.4, aqueous buffer.

Values after ≈ are worked out from the molar mass of the structure shown.

T1 sequence (K7GMM7 1-1248): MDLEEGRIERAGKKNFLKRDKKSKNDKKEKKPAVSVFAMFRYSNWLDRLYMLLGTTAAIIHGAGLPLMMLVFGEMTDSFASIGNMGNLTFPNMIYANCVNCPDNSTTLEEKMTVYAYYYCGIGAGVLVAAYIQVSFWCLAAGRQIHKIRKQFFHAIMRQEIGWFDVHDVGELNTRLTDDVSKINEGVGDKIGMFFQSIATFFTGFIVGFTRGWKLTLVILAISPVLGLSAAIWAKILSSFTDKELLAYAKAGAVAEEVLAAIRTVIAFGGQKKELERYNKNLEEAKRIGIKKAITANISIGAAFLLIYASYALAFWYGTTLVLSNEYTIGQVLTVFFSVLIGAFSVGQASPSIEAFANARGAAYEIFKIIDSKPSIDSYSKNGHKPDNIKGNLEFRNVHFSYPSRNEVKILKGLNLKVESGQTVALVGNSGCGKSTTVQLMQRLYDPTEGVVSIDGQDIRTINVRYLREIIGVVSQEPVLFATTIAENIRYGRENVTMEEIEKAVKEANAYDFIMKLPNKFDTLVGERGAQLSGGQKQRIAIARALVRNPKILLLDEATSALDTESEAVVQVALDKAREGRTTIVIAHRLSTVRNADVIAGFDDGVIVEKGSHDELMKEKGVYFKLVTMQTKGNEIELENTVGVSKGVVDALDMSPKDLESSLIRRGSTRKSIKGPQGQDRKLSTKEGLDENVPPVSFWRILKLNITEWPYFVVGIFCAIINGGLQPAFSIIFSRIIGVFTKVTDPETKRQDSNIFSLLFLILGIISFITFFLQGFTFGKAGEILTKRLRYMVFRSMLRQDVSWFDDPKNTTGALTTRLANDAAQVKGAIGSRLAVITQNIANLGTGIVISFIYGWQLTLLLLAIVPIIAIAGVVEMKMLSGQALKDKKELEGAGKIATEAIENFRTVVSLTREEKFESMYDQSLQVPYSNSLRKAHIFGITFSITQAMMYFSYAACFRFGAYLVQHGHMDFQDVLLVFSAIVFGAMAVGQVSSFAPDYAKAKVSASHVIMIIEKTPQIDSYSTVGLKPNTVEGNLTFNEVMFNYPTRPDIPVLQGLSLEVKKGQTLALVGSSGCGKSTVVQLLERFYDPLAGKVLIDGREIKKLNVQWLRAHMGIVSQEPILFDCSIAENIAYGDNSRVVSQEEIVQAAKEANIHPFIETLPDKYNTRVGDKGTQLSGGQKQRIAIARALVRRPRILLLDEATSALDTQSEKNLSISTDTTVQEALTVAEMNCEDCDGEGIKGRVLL

For orientation: solubility means the concentration that dissolves in the medium under given conditions. A higher solubility goes with much dissolved substance. Broadly, the Papp is the rate of passage across a membrane or cell layer, normalised by area and donor concentration. As for `NC(=O)N1c2ccccc2C=Cc2ccccc21` [Carbamazepine], the “Peff,human^a In Vivo” value in the data set on human jejunum is 430 n.a. [31] 10^−6 cm/s. For the same compound, the solubility in data set [1] (FaSSIF V2, pH 6.5, fassif) was determined as 320 ± 10 µg/mL (≈ 1.35 mM); in data set [1] (FeSSIF V2, pH 5.8, fessif) it was 730 ± 10 µg/mL (≈ 3.09 mM); in data set [1] (setting [11]) it was 200 ± 20 µg/mL (≈ 0.846 mM). Further, the “QDEP FeSSIF V2” value in data set [2] is 3.45 ± 0.52%. Further, the “QDEP KBR” value in data set [2] came to 1.44 ± 0.16%. Besides, the “QPERM FeSSIF V2” value in [2] came out at 0.58 ± 0.22%. The “QPERM KBR” value in [2] is recorded as 2.39 ± 0.42%. Also, the Papp at 120 min, 100 µM in data set [3] (pH 5.8) came out at 4.26 ± 0.96 ×10⁻⁶ cm/s; in data set [3] (pH 6.5) it was 5.97 ± 0.52 ×10⁻⁶ cm/s; in [3] (pH 7.4), 7.81 ± 5.69 ×10⁻⁶ cm/s.

With `CNC(=C[N+](=O)[O-])NCCSCc1ccc(CN(C)C)o1` [Ranitidine], the concentration in solution in data set [1] (FaSSIF V2, pH 6.5, fassif) (solubility) was 15900 ± 1470 µg/mL (≈ 50.5 mM). Also, in data set [1] (FeSSIF V2, pH 5.8, fessif), the solubility worked out at 808000 ± 70500 µg/mL (≈ 2570 mM). Moreover, the concentration in solution in [1] (setting [11]) (solubility) was 19600 ± 2780 µg/mL (≈ 62.5 mM). At P-gp [4], this compound had a Papp at 120 min, 100 µM of 4.92 ×10⁻⁶ cm/s. On P-gp [5] (ileum, verapamil 100 µM, Student's t-test), the “Effect of the presence of verapamil on Papp,pig in the ileum” value is recorded as “significantly increased”. Further, at P-gp [5] (ileum, with verapamil 100 µM), the “QDEP Ileum (+VER)” value was determined as 7.91 ± 0.74% and the “QPERM Ileum (+VER)” value was 0.25 ± 0.03 (6) %. Moreover, on P-gp [5] (ileum, without verapamil), the “QDEP Ileum (−VER)” value came to 1.10 ± 0.59% and the “QPERM Ileum (−VER)” value is listed as 0.55 ± 0.35 (4) %. On P-gp [5] (jejunum, verapamil 100 µM), the “Difference in Papp,pig across the jejunum in the presence or absence of verapamil” value is “No statistically significant difference”. At P-gp [5] (jejunum, with verapamil 100 µM), the “QDEP Jejunum (+VER)” value stood at 5.47 ± 0.75% and the “QPERM Jejunum (+VER)” value is listed as 0.23 ± 0.15 (5) %. Besides, at P-gp [5] (jejunum, without verapamil), the “QDEP Jejunum (−VER)” value was found to be 1.32 ± 0.31% and the “QPERM Jejunum (−VER)” value is reported as 0.67 ± 0.12 (6) %.

Turning to `COc1ccc2cc([C@H](C)C(=O)O)ccc2c1` [Naproxen], in the data set on human jejunum, the “Peff,human^b In Vivo” value was 27–42 [77] 10^−6 cm/s and the “Peff,human^a In Vivo” value is 850 n.a. [31] 10^−6 cm/s. For the same compound, in data set [2], the “QDEP FeSSIF V2” value is reported as 4.74 ± 1.04%.

As to `NS(=O)(=O)c1cc2c(cc1Cl)NCNS2(=O)=O` [Hydrochlorothiazide], in the data set on human jejunum, the “Peff,human^a In Vivo” value was 4 n.a. [31] 10^−6 cm/s. In data set [2], the “QDEP FaSSIF V2” value is 0.22 ± 0.11%, the “QDEP FeSSIF V2” value is reported as 0.74 ± 0.09%, the “QPERM FaSSIF V2” value amounted to 0.11 ± 0.05% and the “QPERM FeSSIF V2” value is 0.23 ± 0.08%. The apparent permeability coefficient (Papp) at 120 min, 100 µM in data set [3] (pH 5.8) was determined as 1.37 ± 0.53 ×10⁻⁶ cm/s. Moreover, the Papp at 120 min, 100 µM in [3] (pH 6.5) is 0.2 ± 0.25 ×10⁻⁶ cm/s. In data set [3] (pH 7.4), this compound came in with a Papp at 120 min, 100 µM of 2.88 ± 2.84 ×10⁻⁶ cm/s.

Regarding `OCc1ncc2n1-c1ccc(Cl)cc1C(c1ccccc1F)=NC2` [α-hydroxymidazolam], in the data set on CYP3A4 [6] (parent drug 100 µM, clotrimazole 100 µM), the “Amount of principal metabolite in the intestinal tissue in the presence of clotrimazole” value is listed as “significantly decreased”.

In general, log P refers to a log measure of how a compound divides between an organic and an aqueous phase. With `CN1C(C(=O)Nc2ccccn2)=C(O)c2ccccc2S1(=O)=O` [Piroxicam], the “Peff,human^a In Vivo” value with human jejunum was 665 n.a. [31] 10^−6 cm/s. Besides, in data set [1] (FaSSIF V2, pH 6.5, fassif), the concentration in solution (solubility) was 290 ± 20 µg/mL (≈ 0.875 mM). The concentration in solution in [1] (FeSSIF V2, pH 5.8, fessif) (solubility) was 60 µg/mL (≈ 0.181 mM). In data set [1] (setting [11]), this compound yielded a solubility of 430 ± 20 µg/mL (≈ 1.3 mM). In addition, the “log P” value in [7] was 3.06. In data set [2], the “QDEP FaSSIF V2” value came out at 5.63 ± 0.26%, the “QDEP FeSSIF V2” value turned out to be 0.21 ± 0.04%, the “QDEP KBR” value stood at 4.12 ± 0.15% and the “QPERM FaSSIF V2” value worked out at 2.32 ± 0.79%. In addition, in [2], the “QPERM FeSSIF V2” value is given as 1.13 ± 0.46% and the “QPERM KBR” value is given as 2.52 ± 0.70%. The compound also gave a Papp at 120 min, 100 µM in data set [3] (pH 5.8) of 5.14 ± 0.78 ×10⁻⁶ cm/s. The Papp at 120 min, 100 µM in data set [3] (pH 6.5) was found to be 10.8 ± 3.7 ×10⁻⁶ cm/s. In [3] (pH 7.4), this compound registered a Papp at 120 min, 100 µM of 8.93 ± 2.03 ×10⁻⁶ cm/s.

`Cc1ncc2n1-c1ccc(Cl)cc1C(c1ccccc1F)=NC2` [Midazolam]: the “Effect of the presence of clotrimazole on Papp,pig” value with CYP3A4 [6] (clotrimazole 100 µM) is “significantly increased”. Further, in the data set with CYP3A4 [6] (with clotrimazole 100 µM), the “QDEP (+CLOTR)” value is recorded as 7.49 ± 2.50% and the “QPERM (+CLOTR)” value stood at 0.18 ± 0.08%. In the data set on CYP3A4 [6] (without clotrimazole), the “QDEP (−CLOTR)” value was found to be 8.06 ± 1.33% and the “QPERM (−CLOTR)” value was 0.13 ± 0.09%. This compound also came in with a Papp at 120 min, 100 µM in the data set with CYP3A4 [8] (pH 7.4, Papp,pig Ex Vivo (+CLOTR), with clotrimazole 100 µM) of 0.46 ± 0.07 ×10⁻⁶ cm/s. In addition, the Papp at 120 min, 100 µM with CYP3A4 [8] (pH 7.4, Papp,pig Ex Vivo (−CLOTR), without clotrimazole) amounted to 0.183 ± 0.138 ×10⁻⁶ cm/s. Also, the “log P” value in [7] was 3.89.

Take `COCCc1ccc(OCC(O)CNC(C)C)cc1` (racemic) [Metoprolol, (+/−)-Metoprolol]: the concentration in solution in data set [1] (FaSSIF V2, pH 6.5, fassif) (solubility) was 43800 ± 15800 µg/mL (≈ 164 mM). Moreover, the concentration in solution in [1] (FeSSIF V2, pH 5.8, fessif) (solubility) came to 381000 ± 33800 µg/mL (≈ 1420 mM). The same compound came in with a solubility in data set [1] (setting [11]) of 298000 ± 13900 µg/mL (≈ 1110 mM). Besides, the “Papp,human jejunum” value with human intestine is 15.9 ± 3.69 10^−6 cm/s. In [9] (colon), the “QDEP Colon” value was determined as 0.02 ± 0.00% and the “QPERM Colon” value is recorded as 1.65 ± 0.87 (6) %. For the same compound, in data set [9] (duodenum), the “QDEP Duodenum” value was 2.35 ± 0.25% and the “QPERM Duodenum” value was 0.14 ± 0.08 (5) %. In addition, in data set [9] (ileum), the “QDEP Ileum” value came out at 1.89 ± 0.67% and the “QPERM Ileum” value was 0.83 ± 0.09 (5) %. The “QPERM Jejunum” value in data set [9] (jejunum) is reported as 0.18 ± 0.05 (4) %. Moreover, in data set [10] (pH 7.4, colon, read-out: Papp,pig Ex Vivo Colon), the Papp at 120 min, 100 µM amounted to 17.6 ± 5.41 ×10⁻⁶ cm/s. In addition, the Papp at 120 min, 100 µM in data set [10] (pH 7.4, duodenum, read-out: Papp,pig Ex Vivo Duodenum) was determined as 0.39 ± 0.16 ×10⁻⁶ cm/s. Further, in [10] (pH 7.4, ileum, read-out: Papp,pig Ex Vivo Ileum), the Papp at 120 min, 100 µM worked out at 6.87 ± 1.23 ×10⁻⁶ cm/s. In addition, the Papp at 120 min, 100 µM in [10] (pH 7.4, jejunum, read-out: Papp,pig Ex Vivo Jejunum) was 10.6 ± 2.92 ×10⁻⁶ cm/s. In [2], the “QDEP FaSSIF V2” value amounted to 0.12 ± 0.03%, the “QDEP FeSSIF V2” value was 0.22 ± 0.01%, the “QDEP KBR” value is given as 0.28 ± 0.04% and the “QPERM FaSSIF V2” value was determined as 0.89 ± 0.19%. In data set [2], the “QPERM FeSSIF V2” value is listed as 0.74 ± 0.08% and the “QPERM KBR” value is reported as 0.18 ± 0.05%. Also, the Papp at 120 min, 100 µM in data set [3] (pH 5.8) is 5.79 ± 1.38 ×10⁻⁶ cm/s. The compound further had a Papp at 120 min, 100 µM in [3] (pH 6.5) of 7.62 ± 1.41 ×10⁻⁶ cm/s. Also, the apparent permeability coefficient (Papp) at 120 min, 100 µM in [3] (pH 7.4) worked out at 10.6 ± 2.92 ×10⁻⁶ cm/s.

For the compound `NS(=O)(=O)c1cc(C(=O)O)c(NCc2ccco2)cc1Cl` [Furosemide], in the data set with human jejunum, the “Peff,human^b In Vivo” value is 1–1.6 [77] 10^−6 cm/s and the “Peff,human^a In Vivo” value is 5 n.a. [31] 10^−6 cm/s. Moreover, in [2], the “QDEP FaSSIF V2” value was found to be 2.22 ± 0.17% and the “QDEP FeSSIF V2” value worked out at 1.52 ± 0.24%.
